Among the data in ChEMBL document CHEMBL5465560, “Selectivity Literature for EUbOPEN Chemogenomic Library” (2024) are % of control, % of inhibition and dTM values, retold here.

Assay [1] concerns the target Casein kinase I isoform gamma-2 (Homo sapiens) (UniProt P78368). The note with it: at 10 µM.
Assay [2] concerns the target T1, Mitogen-activated protein kinase kinase kinase 2 (Homo sapiens) (UniProt Q9Y2U5).
T1 sequence (whole entry): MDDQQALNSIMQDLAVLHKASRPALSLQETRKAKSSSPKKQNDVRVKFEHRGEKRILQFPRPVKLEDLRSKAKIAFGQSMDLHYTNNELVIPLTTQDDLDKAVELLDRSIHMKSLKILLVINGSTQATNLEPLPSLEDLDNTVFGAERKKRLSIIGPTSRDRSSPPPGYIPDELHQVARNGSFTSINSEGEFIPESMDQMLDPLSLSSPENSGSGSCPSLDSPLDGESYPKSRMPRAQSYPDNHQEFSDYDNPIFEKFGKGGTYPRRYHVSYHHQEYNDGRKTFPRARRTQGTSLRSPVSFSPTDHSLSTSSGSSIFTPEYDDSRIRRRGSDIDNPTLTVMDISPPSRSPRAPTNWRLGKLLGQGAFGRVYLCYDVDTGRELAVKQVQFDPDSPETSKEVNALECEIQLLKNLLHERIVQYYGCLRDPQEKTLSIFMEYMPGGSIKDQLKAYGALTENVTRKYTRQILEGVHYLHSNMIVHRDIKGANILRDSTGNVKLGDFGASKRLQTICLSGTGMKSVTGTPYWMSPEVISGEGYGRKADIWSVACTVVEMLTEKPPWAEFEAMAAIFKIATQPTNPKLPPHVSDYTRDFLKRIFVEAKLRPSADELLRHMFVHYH
Description: Selectivity interaction (ActivX KiNativ screen (kinase selectivity in THP-1 cell lysates)) EUB0000639a MAP3K2. It counts as subcellular. To be noted: lysate, at 0.04 µM.

For assay [3], the target named is T2, Mitogen-activated protein kinase kinase kinase 3 (Homo sapiens) (UniProt Q99759).
T2 sequence (whole entry): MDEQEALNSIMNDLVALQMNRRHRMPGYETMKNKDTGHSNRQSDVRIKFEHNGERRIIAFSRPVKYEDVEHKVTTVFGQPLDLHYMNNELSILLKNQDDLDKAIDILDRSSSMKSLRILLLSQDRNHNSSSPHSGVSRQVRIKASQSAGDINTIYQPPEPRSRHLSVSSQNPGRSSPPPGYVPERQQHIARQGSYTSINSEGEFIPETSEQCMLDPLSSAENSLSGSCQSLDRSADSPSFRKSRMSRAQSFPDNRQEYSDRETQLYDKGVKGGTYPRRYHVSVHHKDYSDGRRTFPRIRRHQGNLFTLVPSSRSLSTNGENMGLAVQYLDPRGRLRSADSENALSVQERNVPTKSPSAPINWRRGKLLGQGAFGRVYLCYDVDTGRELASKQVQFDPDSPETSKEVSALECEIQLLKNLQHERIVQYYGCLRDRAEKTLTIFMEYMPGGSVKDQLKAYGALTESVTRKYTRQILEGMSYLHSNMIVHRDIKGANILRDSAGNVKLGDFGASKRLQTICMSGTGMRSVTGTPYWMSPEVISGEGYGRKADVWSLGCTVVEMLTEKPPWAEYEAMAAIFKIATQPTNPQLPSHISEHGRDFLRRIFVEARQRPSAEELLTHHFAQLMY
Description: Selectivity interaction (KinomeScan (DiscoverX)) EUB0000045b MAP3K3.

In assay [4] the target is T3, MAP/microtubule affinity-regulating kinase 4 (Homo sapiens) (UniProt Q96L34).
T3 sequence (whole entry): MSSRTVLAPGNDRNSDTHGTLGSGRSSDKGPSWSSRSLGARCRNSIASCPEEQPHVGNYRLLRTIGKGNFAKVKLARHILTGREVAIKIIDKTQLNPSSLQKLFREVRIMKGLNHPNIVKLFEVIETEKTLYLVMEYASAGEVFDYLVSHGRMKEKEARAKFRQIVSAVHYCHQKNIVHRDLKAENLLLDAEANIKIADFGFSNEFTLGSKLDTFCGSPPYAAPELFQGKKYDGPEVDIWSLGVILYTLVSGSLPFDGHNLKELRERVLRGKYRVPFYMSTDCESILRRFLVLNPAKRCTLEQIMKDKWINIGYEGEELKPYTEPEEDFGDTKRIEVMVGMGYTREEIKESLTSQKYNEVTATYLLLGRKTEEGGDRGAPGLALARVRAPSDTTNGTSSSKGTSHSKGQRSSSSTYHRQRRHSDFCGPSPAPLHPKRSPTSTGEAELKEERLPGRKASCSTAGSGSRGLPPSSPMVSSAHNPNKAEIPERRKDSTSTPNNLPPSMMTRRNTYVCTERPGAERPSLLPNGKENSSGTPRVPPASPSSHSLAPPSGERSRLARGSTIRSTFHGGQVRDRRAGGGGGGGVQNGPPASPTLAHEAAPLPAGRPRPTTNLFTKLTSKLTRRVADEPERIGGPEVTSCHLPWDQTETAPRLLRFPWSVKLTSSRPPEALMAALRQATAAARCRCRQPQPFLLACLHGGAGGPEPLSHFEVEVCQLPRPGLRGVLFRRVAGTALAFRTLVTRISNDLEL
The experiment in a line: Selectivity interaction (KinomeScan (DiscoverX)) EUB0000655a MARK4. To be noted: at 10 µM.

The target of assay [5] is Bromodomain-containing protein 3 (Homo sapiens) (UniProt Q15059). The experiment in a line: Selectivity interaction (Human bromodomain panel (DSF assay)) EUB0000233b BRD3. On the technique in general: Differential scanning fluorimetry follows unfolding on heating by fluorescence.
Chain of Bromodomain-containing protein 3 (Homo sapiens) (Q15059 2-726 limits assumed): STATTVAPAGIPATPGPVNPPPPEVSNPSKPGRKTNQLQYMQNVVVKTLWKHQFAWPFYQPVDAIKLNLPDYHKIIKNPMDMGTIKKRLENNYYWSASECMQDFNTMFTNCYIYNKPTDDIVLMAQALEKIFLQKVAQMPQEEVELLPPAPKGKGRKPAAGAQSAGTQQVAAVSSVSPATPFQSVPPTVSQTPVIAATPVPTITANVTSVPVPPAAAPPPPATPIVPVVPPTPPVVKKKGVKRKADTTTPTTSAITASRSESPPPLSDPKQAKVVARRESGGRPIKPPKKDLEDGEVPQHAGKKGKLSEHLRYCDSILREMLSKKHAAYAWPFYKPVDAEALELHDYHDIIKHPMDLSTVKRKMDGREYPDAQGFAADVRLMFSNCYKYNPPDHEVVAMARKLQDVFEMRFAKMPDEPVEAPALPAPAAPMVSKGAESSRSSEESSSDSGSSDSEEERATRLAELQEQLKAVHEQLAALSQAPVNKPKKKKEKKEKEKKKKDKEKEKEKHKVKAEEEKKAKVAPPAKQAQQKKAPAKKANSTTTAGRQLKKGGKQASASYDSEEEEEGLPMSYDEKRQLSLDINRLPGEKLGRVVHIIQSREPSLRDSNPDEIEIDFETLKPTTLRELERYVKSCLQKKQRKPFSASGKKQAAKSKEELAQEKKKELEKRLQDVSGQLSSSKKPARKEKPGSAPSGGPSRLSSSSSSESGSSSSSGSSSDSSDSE

Chain of Casein kinase I isoform gamma-2 (Homo sapiens) (P78368 whole entry, looked up, canonical isoform): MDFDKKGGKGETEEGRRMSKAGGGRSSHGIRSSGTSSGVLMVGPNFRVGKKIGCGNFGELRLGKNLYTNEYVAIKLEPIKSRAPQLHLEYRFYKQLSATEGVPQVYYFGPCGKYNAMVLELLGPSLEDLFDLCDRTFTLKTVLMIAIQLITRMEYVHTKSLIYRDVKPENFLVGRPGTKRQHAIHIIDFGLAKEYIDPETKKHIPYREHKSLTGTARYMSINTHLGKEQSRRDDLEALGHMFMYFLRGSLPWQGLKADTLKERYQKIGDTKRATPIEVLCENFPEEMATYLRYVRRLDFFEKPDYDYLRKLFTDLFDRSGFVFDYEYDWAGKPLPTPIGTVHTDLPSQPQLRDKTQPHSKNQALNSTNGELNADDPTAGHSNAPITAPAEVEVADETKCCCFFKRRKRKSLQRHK

`CCN(CC)CCCCNc1ncc2cc(-c3cc(OC)cc(OC)c3)c(NC(=O)NC(C)(C)C)nc2n1`: the % of control in assay [1] was 100%.

`CC[C@@H]1[C@H](F)C(=O)N[C@@H]1COc1nccc2cc(C(N)=O)c(OC)cc12` [ZIMLOVISERTIB] returned a % of inhibition in assay [2] of 1.8%.

For the compound `C=CC(=O)Nc1cc(-n2c(=O)ccc3cnc4ccc(-c5ccc(NS(C)(=O)=O)cc5)cc4c32)ccc1C`, the results for the % of control in assay [3] (at 1 µM) and in assay [3] (at 10 µM) were 100% and 79%, respectively.

In assay [4], `CN(C)CCOc1ccc(-c2nc(-c3ccncc3)c(-c3ccc4c(c3)CC/C4=N\O)[nH]2)cc1` returned a % of control of 100%.

As to `CN(C)CCCOc1ccc(-c2cc(NCCCn3cccn3)nc(S(C)(=O)=O)n2)cc1`, the dTM in assay [5] is below 2 K.
